Results published in article PMC10447267, “Assessment of the potential of the MET inhibitor tepotinib to affect the pharmacokinetics of CYP3A4 and P-gp substrates” (Investigational New Drugs, 2023).
Where two headings read alike, the source gives them in different places.

Experiments:
[1] = system: CYP3A4/5; assay: CYP3A4/5 inhibition in pooled human liver microsomes; format: in vitro ADME; details: for inhibition at 49.5 µM / IC50: human, microsomes
Description: The potential of tepotinib and MSC2571109A to inhibit CYP450 enzymes CYP1A2, 2A6, 2B6, 2C8, 2C9, 2C19, 2D6, 2E1, and 3A4/5 in vitro was evaluated using CYP-catalyzed reactions in pooled mixed-gender human liver microsomes using specific substrates and liquid chromatography/tandem mass spectrometry (LC–MS/MS) readouts. […] […] Assessments of mechanism-based inhibition of the above listed CYP450 enzymes were conducted after pre-incubation of the microsomes with tepotinib or MSC2571109A. A brief summary of the incubation methods, including details of substrates used for the other CYP enzymes (which are not pertinent to this article) are presented in Online Resource 1. The LC–MS/MS-based methods used were consistent with those previously described in the literature.

[2] = system: CYP3A4 mRNA; assay: CYP3A4 mRNA induction in human hepatocyte cultures; format: in vitro ADME
Description: (§1) In vitro studies in primary human hepatocyte cultures were conducted to assess the potential of tepotinib to induce human CYP1A1/2, 2B6 and 3A4/5 activity, the latter based on testosterone 6β-hydroxylation reactions (Online Resource 2). […] The studies included positive (rifampin) and vehicle (DMSO) controls. A negative control (flumazenil) was also included in the mRNA studies. The study designs, test systems and selection of prototypical inducers used in these studies were consistent with PhRMA, FDA and EMA guidelines.

[3] = target: T1, CYP2C8 (Homo sapiens, UniProt P10632); assay: CYP2C8 inhibition in pooled human liver microsomes; format: in vitro ADME; details: Amodiaquine N-dealkylation
T1 sequence (P10632 1-490): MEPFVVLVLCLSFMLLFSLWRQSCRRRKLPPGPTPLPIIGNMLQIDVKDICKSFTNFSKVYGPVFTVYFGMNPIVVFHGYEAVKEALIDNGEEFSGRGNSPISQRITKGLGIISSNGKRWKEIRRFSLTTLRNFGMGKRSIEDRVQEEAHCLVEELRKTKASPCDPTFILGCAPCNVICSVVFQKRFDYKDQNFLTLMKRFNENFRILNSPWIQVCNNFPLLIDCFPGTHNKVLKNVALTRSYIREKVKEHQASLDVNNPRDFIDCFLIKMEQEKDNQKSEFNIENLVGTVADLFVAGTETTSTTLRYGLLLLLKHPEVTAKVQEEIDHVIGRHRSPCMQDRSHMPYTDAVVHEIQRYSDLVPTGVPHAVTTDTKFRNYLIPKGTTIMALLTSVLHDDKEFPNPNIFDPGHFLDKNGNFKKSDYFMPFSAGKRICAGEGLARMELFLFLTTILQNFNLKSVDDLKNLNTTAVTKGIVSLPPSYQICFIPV
Description: (§2) The potential of tepotinib and MSC2571109A to inhibit CYP450 enzymes CYP1A2, 2A6, 2B6, 2C8, 2C9, 2C19, 2D6, 2E1, and 3A4/5 in vitro was evaluated using CYP-catalyzed reactions in pooled mixed-gender human liver microsomes using specific substrates and liquid chromatography/tandem mass spectrometry (LC–MS/MS) readouts. […] Testosterone 6β-hydroxylation was assessed in the MSC2571109A study. Assessments of mechanism-based inhibition of the above listed CYP450 enzymes were conducted after pre-incubation of the microsomes with tepotinib or MSC2571109A. A brief summary of the incubation methods, including details of substrates used for the other CYP enzymes (which are not pertinent to this article) are presented in Online Resource 1. The LC–MS/MS-based methods used were consistent with those previously described in the literature.

[4] = system: CYP2B6; assay: CYP2B6 activity induction in primary human hepatocyte cultures; format: in vitro ADME; details: enzyme activity quantification
Description: as §1

[5] = human mass balance study; cited from earlier work
[6] = substance not given, taken as tepotinib; ref the healthcare business of Merck KGaA, Darmstadt, Germany, data on file; cited from earlier work
[7] = target: T2, CYP2D6 (Homo sapiens, UniProt P10635); assay: biochemical; format: in vitro ADME; details: for inhibition at 49.5 µM: both sexes, human, microsomes
T2 construct: pooled mixed-gender human liver microsomes; from tissue; host or cells: pooled mixed-gender human liver microsomes
T2 sequence (P10635 whole entry): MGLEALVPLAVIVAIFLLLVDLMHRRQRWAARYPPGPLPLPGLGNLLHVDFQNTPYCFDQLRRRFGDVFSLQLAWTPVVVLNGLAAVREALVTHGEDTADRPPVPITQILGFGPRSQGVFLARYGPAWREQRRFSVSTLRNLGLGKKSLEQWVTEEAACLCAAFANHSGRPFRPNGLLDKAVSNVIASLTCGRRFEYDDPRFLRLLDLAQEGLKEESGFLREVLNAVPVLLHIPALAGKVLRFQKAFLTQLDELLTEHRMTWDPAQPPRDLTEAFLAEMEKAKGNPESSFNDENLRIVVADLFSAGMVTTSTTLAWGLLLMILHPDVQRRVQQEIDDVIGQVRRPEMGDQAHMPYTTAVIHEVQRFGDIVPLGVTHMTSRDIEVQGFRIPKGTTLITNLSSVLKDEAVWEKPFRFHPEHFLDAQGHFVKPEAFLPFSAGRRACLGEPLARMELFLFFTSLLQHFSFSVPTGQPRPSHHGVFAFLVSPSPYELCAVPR
Description: as §2

[8] = target: T3, CYP2E1 (Homo sapiens, UniProt P05181); assay: biochemical; format: in vitro ADME; details: for inhibition at 49.5 µM: both sexes, human, microsomes
T3 construct: pooled mixed-gender human liver microsomes; from tissue; host or cells: pooled mixed-gender human liver microsomes
T3 sequence (P05181 whole entry): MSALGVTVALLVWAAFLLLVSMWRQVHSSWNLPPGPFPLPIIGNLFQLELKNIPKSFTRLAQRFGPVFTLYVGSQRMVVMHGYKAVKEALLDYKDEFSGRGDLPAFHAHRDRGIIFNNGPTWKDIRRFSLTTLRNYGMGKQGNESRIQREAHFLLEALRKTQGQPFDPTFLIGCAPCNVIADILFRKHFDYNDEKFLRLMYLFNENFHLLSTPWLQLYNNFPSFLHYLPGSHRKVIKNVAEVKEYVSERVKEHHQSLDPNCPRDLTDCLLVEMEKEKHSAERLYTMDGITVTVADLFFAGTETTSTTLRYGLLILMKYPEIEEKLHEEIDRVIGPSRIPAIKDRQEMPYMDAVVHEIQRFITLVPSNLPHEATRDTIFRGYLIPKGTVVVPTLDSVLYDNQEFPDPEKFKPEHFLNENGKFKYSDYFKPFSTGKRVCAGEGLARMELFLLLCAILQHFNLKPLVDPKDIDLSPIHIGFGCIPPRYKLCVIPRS
Description: as §2

[9] = target: P-gp (Homo sapiens, UniProt P08183); assay: Study 2 (NCT03492437): effect of tepotinib on dabigatran pharmacokinetics in healthy participants; format: in vivo; details: clinical; tepotinib 500 mg QD
Sequence of P-gp (P08183 whole entry): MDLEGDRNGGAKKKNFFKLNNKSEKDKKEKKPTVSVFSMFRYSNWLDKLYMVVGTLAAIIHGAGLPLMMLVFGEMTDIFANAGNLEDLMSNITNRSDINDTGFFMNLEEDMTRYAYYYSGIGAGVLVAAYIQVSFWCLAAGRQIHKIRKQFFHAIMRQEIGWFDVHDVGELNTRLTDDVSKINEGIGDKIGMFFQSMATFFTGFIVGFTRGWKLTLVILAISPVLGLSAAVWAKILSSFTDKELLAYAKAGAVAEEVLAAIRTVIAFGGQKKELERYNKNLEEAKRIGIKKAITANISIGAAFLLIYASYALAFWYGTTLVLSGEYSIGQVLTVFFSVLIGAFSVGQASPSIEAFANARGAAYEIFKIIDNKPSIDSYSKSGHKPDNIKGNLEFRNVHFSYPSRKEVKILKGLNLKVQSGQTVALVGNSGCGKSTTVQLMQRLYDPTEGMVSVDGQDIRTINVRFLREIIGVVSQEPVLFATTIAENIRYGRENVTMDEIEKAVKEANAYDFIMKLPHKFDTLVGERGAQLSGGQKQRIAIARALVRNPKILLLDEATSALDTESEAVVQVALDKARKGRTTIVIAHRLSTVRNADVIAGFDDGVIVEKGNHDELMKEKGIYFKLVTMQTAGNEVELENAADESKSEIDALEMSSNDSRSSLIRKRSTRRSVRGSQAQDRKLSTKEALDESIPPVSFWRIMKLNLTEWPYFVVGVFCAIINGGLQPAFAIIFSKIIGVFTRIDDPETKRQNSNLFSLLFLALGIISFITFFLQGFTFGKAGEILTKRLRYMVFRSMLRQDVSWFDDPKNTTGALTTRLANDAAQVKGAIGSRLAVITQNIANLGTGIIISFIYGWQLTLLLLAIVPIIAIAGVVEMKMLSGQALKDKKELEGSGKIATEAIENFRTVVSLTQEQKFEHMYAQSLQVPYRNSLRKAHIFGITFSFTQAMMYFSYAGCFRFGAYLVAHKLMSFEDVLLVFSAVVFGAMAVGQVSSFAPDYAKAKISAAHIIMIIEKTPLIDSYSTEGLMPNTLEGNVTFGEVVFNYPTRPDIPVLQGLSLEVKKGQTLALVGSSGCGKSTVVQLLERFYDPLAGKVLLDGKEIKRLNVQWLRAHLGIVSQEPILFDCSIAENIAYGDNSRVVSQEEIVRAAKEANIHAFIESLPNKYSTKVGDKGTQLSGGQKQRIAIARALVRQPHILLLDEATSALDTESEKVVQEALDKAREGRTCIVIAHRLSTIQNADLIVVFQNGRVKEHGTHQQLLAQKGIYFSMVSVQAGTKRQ
Description: Study 1 (NCT03628339) and Study 2 (NCT03492437) were both Phase 1, open-label, single sequence, 2-period studies in 12 and 20 healthy participants, respectively (Fig. 1).
In Period 2 (Days 4 to 14), participants received 500 mg tepotinib QD on Days 4 to 11. […] Blood samples for trough concentrations of tepotinib were collected on Days 9 and 10. Further blood samples for tepotinib and its metabolites were also collected up to 24 h postdose on Day 10.
Parameters included maximum plasma concentration (Cmax) and time to reach Cmax (Tmax) taken directly from the observed data. Area under the plasma concentration–time curve (AUC) from time 0 to the last measured concentration (AUC0-t), AUC over the dose interval (AUCtau) and AUC extrapolated to infinity (AUC0-∞) were calculated using the mixed log/linear trapezoidal rule. Terminal elimination half-life (t1/2) was calculated as ln(2)/λz where λz is the terminal rate constant. The primary pharmacokinetic parameters in both studies were Cmax, AUC0-t and AUC0-∞.
A similar statistical approach was taken for both studies. […] Point estimates and CIs were back-transformed to the original scale.

[10] = Tepotinib steady-state pharmacokinetics at the clinical dose; details: human, in vivo, oral, 500 mg

CN1CCC(COc2cnc(-c3cccc(Cn4nc(-c5cccc(C#N)c5)ccc4=O)c3)nc2)CC1 [tepotinib]
Potential for time-dependent inhibition ([1]; Midazolam 6β-hydroxylation): Little or No
Potential for time-dependent inhibition ([1]; Nifedipine oxidation): Little or No
Potential for time-dependent inhibition ([1]; Testosterone 1’-hydroxylation): Little or No
inhibition at 49.5 µM ([1]; both sexes, Midazolam 6β-hydroxylation, 30-min preincubation, read-out: Time-dependent inhibition, maximum inhibition at 49.5 µM): 60%
IC50 ([1]; both sexes, Midazolam 6β-hydroxylation, 30-min preincubation, read-out: Time-dependent inhibition IC50): 33 µM
inhibition at 49.5 µM ([1]; both sexes, Midazolam 6β-hydroxylation, zero-minute preincubation, read-out: Direct inhibition, maximum inhibition at 49.5 µM): 66%
inhibition at 49.5 µM ([1]; both sexes, Nifedipine oxidation, 30-min preincubation, read-out: Time-dependent inhibition, maximum inhibition at 49.5 µM): 71%
IC50 ([1]; both sexes, Nifedipine oxidation, 30-min preincubation, read-out: Time-dependent inhibition IC50): 25 µM
inhibition at 49.5 µM ([1]; both sexes, Nifedipine oxidation, zero-minute preincubation, read-out: Direct inhibition, maximum inhibition at 49.5 µM): 64%
inhibition at 49.5 µM ([1]; both sexes, Testosterone 1’-hydroxylation, 30-min preincubation, read-out: Time-dependent inhibition, maximum inhibition at 49.5 µM): 59%
IC50 ([1]; both sexes, Testosterone 1’-hydroxylation, 30-min preincubation, read-out: Time-dependent inhibition IC50): 37 µM
inhibition at 49.5 µM ([1]; both sexes, Testosterone 1’-hydroxylation, zero-minute preincubation, read-out: Direct inhibition, maximum inhibition at 49.5 µM): 62%
IC50 ([1]; both sexes, human liver microsomes, Midazolam 6β-hydroxylation, zero-minute preincubation, read-out: Direct inhibition IC50): 25 µM
IC50 ([1]; both sexes, human liver microsomes, Nifedipine oxidation, zero-minute preincubation, read-out: Direct inhibition IC50): 26 µM
IC50 ([1]; both sexes, human liver microsomes, Testosterone 1’-hydroxylation, zero-minute preincubation, read-out: Direct inhibition IC50): 31 µM
IC50 ([1]; both sexes, in vitro, abstract summary, read-out: IC50, direct or time-dependent CYP3A4/5 inhibition): > 15 µM
Ki ([1]; both sexes, human liver microsomes, read-out: Ki, CYP3A4/5-catalyzed probe substrate reactions): ≥ 11 µM
Direct inhibition of CYP3A4/5 (in words) ([1]; in vitro): weak direct inhibitors
Increase in CYP3A4 mRNA ([2]; human hepatocyte cultures, maximum (up to), concentration-dependent): up to 7 fold
Effect on CYP3A4 mRNA (in words) ([2]; in vitro): increased CYP3A4 mRNA
Potential for time-dependent inhibition [3]: Little or No
IC50 ([3]; 30-min preincubation, read-out: Time-dependent inhibition IC50): 13 µM
Type of inhibition ([3]; direct inhibition): Mixed
inhibition at 49.5 µM ([3]; both sexes, human, pooled human liver microsomes, probe amodiaquine, zero-minute preincubation, 49.5 µM, read-out: Direct inhibition, maximum inhibition at 49.5 µM): 86%
Ki ([3]; human liver microsomes, read-out: Direct inhibition Ki): 11 µM
IC50 ([3]; human liver microsomes, zero-minute preincubation, read-out: Direct inhibition IC50): 16 µM
Induction of CYP2B6 activity [4]: less than 40 % of positive control
Share of total circulating radioactivity in plasma [5]: 55%
Geometric mean free Cmax [6]: 52.4 nM
IC50 [7]: > 49.5 µM
Potential for time-dependent inhibition ([7]; Dextromethorphan O-demethylation): Little or No
inhibition at 49.5 µM ([7]; Dextromethorphan O-demethylation, 30-min preincubation, read-out: Time-dependent inhibition, maximum inhibition at 49.5 µM): 24%
inhibition at 49.5 µM ([7]; Dextromethorphan O-demethylation, zero-minute preincubation, read-out: Direct inhibition, maximum inhibition at 49.5 µM): 50%
IC50 ([7]; read-out: Time-dependent inhibition IC50, Dextromethorphan O-demethylation, 30-min preincubation): > 49.5 µM
IC50 [8]: > 49.5 µM
Potential for time-dependent inhibition ([8]; Chlorzoxazone 6-hydroxylation): Little or No
inhibition at 49.5 µM ([8]; Chlorzoxazone 6-hydroxylation, 30-min preincubation, read-out: Time-dependent inhibition, maximum inhibition at 49.5 µM): 17%
inhibition at 49.5 µM ([8]; Chlorzoxazone 6-hydroxylation, zero-minute preincubation, read-out: Direct inhibition, maximum inhibition at 49.5 µM): 19%
IC50 ([8]; read-out: Time-dependent inhibition IC50, Chlorzoxazone 6-hydroxylation, 30-min preincubation): > 49.5 µM
Inhibition of P-gp-mediated efflux transport of dabigatran etexilate (in words) [9]: weak inhibitor
Tmax ([10]; Median steady state Tmax): 8 h
Tmax ([10]; Steady state Tmax, range): 2 to 24 h
